Literature values as cited in paper PMC8398451, “Molecular Engineering of Curcumin, an Active Constituent of Curcuma longa L. (Turmeric) of the Family Zingiberaceae with Improved Antiproliferative Activity” (Plants, 2021).

Assays:
Design in all cases: method as in earlier work
Conditions in all cases: cited from earlier work; for Mean % GI: 10 µM, retrieved from NCI data-ware
[1] = tested on: Leukemia cell line panel
[2] = tested on: Non-Small Cell Lung Cancer cell line panel
[3] = tested on: Colon Cancer cell line panel
[4] = tested on: CNS Cancer cell line panel
[5] = tested on: Melanoma cell line panel
[6] = tested on: Ovarian Cancer cell line panel
[7] = tested on: Renal Cancer cell line panel
[8] = tested on: Prostate Cancer cell line panel
[9] = tested on: Breast Cancer cell line panel
[10] = five-dose assay, curcumin NCI data

COc1cc(/C=C/C(=O)CC(=O)/C=C/c2ccc(O)c(OC)c2)ccc1O [Cur, Curcumin]
Mean % GI [1]: 97.76% | GI50 [1, 10]: 3.7 µM | Mean % GI [2]: 49.27% | GI50 [2, 10]: 9.2 µM | Mean % GI [3]: 95.76% | GI50 [3, 10]: 4.7 µM | Mean % GI [4]: 60.75% | GI50 [4, 10]: 5.8 µM | Mean % GI [5]: 54.63% | GI50 [5, 10]: 5.9 µM | Mean % GI [6]: 44.66% | GI50 [6, 10]: 9.1 µM | Mean % GI [7]: 45.35% | GI50 [7, 10]: 8.9 µM | Mean % GI [8]: 61.3% | GI50 [8, 10]: 11.2 µM | Mean % GI [9]: 56.1% | GI50 [9, 10]: 8.1 µM

COc1cc2ncnc(Nc3ccc(F)c(Cl)c3)c2cc1OCCCN1CCOCC1 [Gefitinib]
Mean % GI [1]: 79.68% | Mean % GI [2]: 63.97% | Mean % GI [3]: 52.19% | Mean % GI [4]: 46.13% | Mean % GI [5]: 44.99% | Mean % GI [6]: 60.93% | Mean % GI [7]: 77.89% | Mean % GI [8]: 59.6% | Mean % GI [9]: 52.88%
